Reference: ChEMBL document CHEMBL6127100, “Plant based steroidal and triterpenoid sapogenins: Chemistry on diosgenin and biological aspects” (Eur J Med Chem, 2024)

Experiments:
Format in all cases: functional, cell-based
HeLa = assay: Antiproliferative activity against human HeLa cells assessed as reduction in cell viability measured for 24 hrs by MTT assay
HepG2 = assay: Antiproliferative activity against human HepG2 cells assessed as reduction in cell viability measured for 24 hrs by MTT assay; details: HepG2, 24 h
A-431 = assay: Antiproliferative activity against human A-431 cells assessed as reduction in cells assessed as reduction in cell growth incubated for 72 hrs by MTT assay; details: A-431, 72 h
A549 = assay: Antiproliferative activity against human A549 cells assessed as reduction in cells assessed as reduction in cell growth incubated for 72 hrs by MTT assay; details: A549, 72 h
ASPC1 = assay: Antiproliferative activity against human ASPC1 cells assessed as reduction in cells assessed as reduction in cell growth incubated for 72 hrs by MTT assay; details: ASPC1, 72 h
NCI-H1975 = assay: Antiproliferative activity against human NCI-H1975 cells assessed as reduction in cells assessed as reduction in cell growth incubated for 72 hrs by MTT assay; details: NCI-H1975, 72 h
HCT-116 = assay: Antiproliferative activity against human HCT-116 cells assessed as reduction in cells assessed as reduction in cell growth incubated for 72 hrs by MTT assay; details: HCT-116, 72 h

Row | SMILES | IC50 (HeLa) | IC50 (HepG2) | IC50 (A-431) | IC50 (A549) | IC50 (ASPC1) | IC50 (NCI-H1975) | IC50 (HCT-116)
1 | C[C@H](CC[C@H]1O[C@H]2C[C@H]3[C@@H]4CC=C5C[C@@H](OC6=C(Cl)C(=O)c7ncccc7C6=O)CC[C@]5(C)[C@H]4CC[C@]3(C)[C@H]2[C@@H]1C)CO[Si](C)(C)C(C)(C)C | 12.4 µM | 12.2 µM |  |  |  |  | 
2 | COCC[N+](C)(CCOC)[C@H]1CC[C@@]2(C)C(=CC[C@H]3[C@@H]4C[C@@H]5O[C@]6(CC[C@@H](C)CO6)[C@@H](C)[C@@H]5[C@@]4(C)CC[C@@H]32)C1 |  |  | 2.85 µM | 6.33 µM | 55.3 µM | 5.09 µM | > 1 µM
3 | C[C@@H](CO)CC[C@H]1O[C@H]2C[C@H]3[C@@H]4CC=C5C[C@@H](OC6=C(Cl)C(=O)c7ccccc7C6=O)CC[C@]5(C)[C@H]4CC[C@]3(C)[C@H]2[C@@H]1C | 3.7 µM | 3.85 µM |  |  |  |  | 
4 | CC[N+](CC)(CC)CCCCC(=O)O[C@H]1CC[C@@]2(C)C(=CC[C@H]3[C@@H]4C[C@@H]5O[C@]6(CC[C@@H](C)CO6)[C@@H](C)[C@@H]5[C@@]4(C)CC[C@@H]32)C1 |  |  | 3.46 µM | 2.52 µM | 6.56 µM | 3.23 µM | 
5 | Cc1ccc2c(c1)C(=O)C(Cl)=C(OC[C@H](C)CC[C@H]1O[C@H]3C[C@H]4[C@@H]5CC=C6C[C@@H](OC7=C(Cl)C(=O)c8cc(C)ccc8C7=O)CC[C@]6(C)[C@H]5CC[C@]4(C)[C@H]3[C@@H]1C)C2=O | 14.5 µM | 9.18 µM |  |  |  |  | 
6 | CCCC[N+](C)(CCCC)[C@H]1CC[C@@]2(C)C(=CC[C@H]3[C@@H]4C[C@@H]5O[C@]6(CC[C@@H](C)CO6)[C@@H](C)[C@@H]5[C@@]4(C)CC[C@@H]32)C1 |  |  | 3.87 µM | 2.42 µM | < 5 µM | 6.39 µM | 1.03 µM
7 | C[C@@H]1CC[C@@]2(OC1)O[C@H]1C[C@H]3[C@@H]4CC=C5C[C@@H]([N+](C)(CCO)CCO)CC[C@]5(C)[C@H]4CC[C@]3(C)[C@H]1[C@@H]2C |  |  | 3.26 µM | 5.35 µM | 17.8 µM |  | 11.5 µM
8 | C[C@@H]1CC[C@@]2(OC1)O[C@H]1C[C@H]3[C@@H]4CC=C5C[C@@H](OC(=O)CCCC[N+](C)(C)c6ccccc6)CC[C@]5(C)[C@H]4CC[C@]3(C)[C@H]1[C@@H]2C |  |  | 3.52 µM | 6.63 µM | 4.18 µM | 4.05 µM | 
9 | C[C@@H]1CC[C@@]2(OC1)O[C@H]1C[C@H]3[C@@H]4CC=C5C[C@@H]([N+](C)(C/C=C/c6ccccc6)C/C=C/c6ccccc6)CC[C@]5(C)[C@H]4CC[C@]3(C)[C@H]1[C@@H]2C |  |  | < 2.5 µM | 9.86 µM | < 5 µM | 5.73 µM | 0.34 µM
10 | C[C@@H]1CC[C@@]2(OC1)O[C@H]1C[C@H]3[C@@H]4CC=C5C[C@@H](OC(=O)CCCC[N+]67CCC(CC6)C(O)C7)CC[C@]5(C)[C@H]4CC[C@]3(C)[C@H]1[C@@H]2C (some centres not stated) |  |  | 4.14 µM | 4.07 µM | 4.46 µM | 1.68 µM | 
11 | C[C@@H]1CC[C@@]2(OC1)O[C@H]1C[C@H]3[C@@H]4CC=C5C[C@@H](OC(=O)CCCC[N+]6(CCO)CCOCC6)CC[C@]5(C)[C@H]4CC[C@]3(C)[C@H]1[C@@H]2C |  |  | 6.21 µM | 12.6 µM | 11.1 µM | 3.36 µM | 
12 | C#CC[N+](C)(CC#C)[C@H]1CC[C@@]2(C)C(=CC[C@H]3[C@@H]4C[C@@H]5O[C@]6(CC[C@@H](C)CO6)[C@@H](C)[C@@H]5[C@@]4(C)CC[C@@H]32)C1 |  |  | 14.5 µM | 12.7 µM | 4.41 µM | 5.92 µM | 4.71 µM
13 | C[C@H](CC[C@H]1O[C@H]2C[C@H]3[C@@H]4CC=C5C[C@@H](OC6=C(Cl)C(=O)c7ccccc7C6=O)CC[C@]5(C)[C@H]4CC[C@]3(C)[C@H]2[C@@H]1C)COC1=C(Cl)C(=O)c2ccccc2C1=O | 6.27 µM | 1.76 µM |  |  |  |  | 
14 | C[C@@H]1CC[C@@]2(OC1)O[C@H]1C[C@H]3[C@@H]4CC=C5C[C@@H](OC(=O)CCCC[N+]6(C)CCCCC6)CC[C@]5(C)[C@H]4CC[C@]3(C)[C@H]1[C@@H]2C |  |  | 3.03 µM | 5.83 µM | 2.83 µM | 5.08 µM | 
15 | C[C@@H]1CC[C@@]2(OC1)O[C@H]1C[C@H]3[C@@H]4CC=C5C[C@@H](OC(=O)CCCC[N+](C)(C)Cc6ccccc6)CC[C@]5(C)[C@H]4CC[C@]3(C)[C@H]1[C@@H]2C |  |  | 1.85 µM | 5.3 µM | 7.12 µM | 1.51 µM | 
16 | C[C@@H](CO)CC[C@H]1O[C@H]2C[C@H]3[C@@H]4CC=C5C[C@@H](OC6=C(Cl)C(=O)c7ncccc7C6=O)CC[C@]5(C)[C@H]4CC[C@]3(C)[C@H]2[C@@H]1C | 6.36 µM |  |  |  |  |  | 
17 | C[C@@H]1CC[C@@]2(OC1)O[C@H]1C[C@H]3[C@@H]4CC=C5C[C@@H](OC(=O)CCCC[N+]6(C)CCCC6)CC[C@]5(C)[C@H]4CC[C@]3(C)[C@H]1[C@@H]2C |  |  | 4.05 µM | 4.47 µM | 2.15 µM | 3.44 µM | 
18 | C[C@@H]1CC[C@@]2(OC1)O[C@H]1C[C@H]3[C@@H]4CC=C5C[C@@H]([N+]6(C)CCCC6)CC[C@]5(C)[C@H]4CC[C@]3(C)[C@H]1[C@@H]2C |  |  | 10.4 µM | 10.5 µM | 5.54 µM | 11.2 µM | 3.94 µM
19 | C[C@@H]1CC[C@@]2(OC1)O[C@H]1C[C@H]3[C@@H]4CC=C5C[C@@H]([N+](C)(CCCCN6C(=O)c7ccccc7C6=O)CCCCN6C(=O)c7ccccc7C6=O)CC[C@]5(C)[C@H]4CC[C@]3(C)[C@H]1[C@@H]2C |  |  | 4.33 µM | 10.7 µM | 4.78 µM | 9.17 µM | 3.23 µM
20 | C[C@@H]1CC[C@@]2(OC1)O[C@H]1C[C@H]3[C@@H]4CC=C5C[C@@H]([N+](C)(CC6CC6)CC6CC6)CC[C@]5(C)[C@H]4CC[C@]3(C)[C@H]1[C@@H]2C |  |  | 4.71 µM | 2.69 µM | 4.07 µM | 5.32 µM | 1.12 µM
21 | C[C@@H]1CC[C@@]2(OC1)O[C@H]1C[C@H]3[C@@H]4CC=C5C[C@@H](OC(=O)CCCC[N+]6(C)CCOCC6)CC[C@]5(C)[C@H]4CC[C@]3(C)[C@H]1[C@@H]2C |  |  | 5.88 µM | 5.83 µM | 8.48 µM | 5.45 µM | 
22 | C[C@@H]1CC[C@@]2(OC1)O[C@H]1C[C@H]3[C@@H]4CC=C5C[C@@H](OC(=O)CCCC[N+]6(CCO)CCCCC6)CC[C@]5(C)[C@H]4CC[C@]3(C)[C@H]1[C@@H]2C |  |  | 4.14 µM | 4.68 µM | 6.07 µM | 1.68 µM | 
23 | C=CC[N+](CC=C)(CC=C)CCCCC(=O)O[C@H]1CC[C@@]2(C)C(=CC[C@H]3[C@@H]4C[C@@H]5O[C@]6(CC[C@@H](C)CO6)[C@@H](C)[C@@H]5[C@@]4(C)CC[C@@H]32)C1 |  |  | 2.55 µM | 1.84 µM | 1.23 µM | 0.78 µM | 
24 | Cc1ccc2c(n1)C(=O)C(Cl)=C(O[C@H]1CC[C@@]3(C)C(=CC[C@H]4[C@@H]5C[C@@H]6O[C@H](CC[C@@H](C)CO[Si](C)(C)C(C)(C)C)[C@@H](C)[C@@H]6[C@@]5(C)CC[C@@H]43)C1)C2=O | 9.69 µM | 3.55 µM |  |  |  |  | 
25 | C[C@H](CC[C@H]1O[C@H]2C[C@H]3[C@@H]4CC=C5C[C@@H](OC6=C(Cl)C(=O)c7ccccc7C6=O)CC[C@]5(C)[C@H]4CC[C@]3(C)[C@H]2[C@@H]1C)CO[Si](C)(C)C(C)(C)C | 9.69 µM | 3.52 µM |  |  |  |  | 
26 | Cc1ccc2c(n1)C(=O)C(Cl)=C(O[C@H]1CC[C@@]3(C)C(=CC[C@H]4[C@@H]5C[C@@H]6O[C@H](CC[C@@H](C)CO)[C@@H](C)[C@@H]6[C@@]5(C)CC[C@@H]43)C1)C2=O | 15.6 µM | 5.36 µM |  |  |  |  | 
27 | C[C@@H]1CC[C@@]2(OC1)O[C@H]1C[C@H]3[C@@H]4CC=C5C[C@@H]([N+](C)(C)CC#N)CC[C@]5(C)[C@H]4CC[C@]3(C)[C@H]1[C@@H]2C |  |  | 8.25 µM |  | 19.3 µM | 20.6 µM | 9.74 µM
28 | CCCC[N+](C)(C)CCCCC(=O)O[C@H]1CC[C@@]2(C)C(=CC[C@H]3[C@@H]4C[C@@H]5O[C@]6(CC[C@@H](C)CO6)[C@@H](C)[C@@H]5[C@@]4(C)CC[C@@H]32)C1 |  |  | 3.11 µM | 2.81 µM | 2.77 µM | 3.68 µM | 
29 | C[C@@H]1CC[C@@]2(OC1)O[C@H]1C[C@H]3[C@@H]4CC=C5C[C@@H]([N+](C)(C)C)CC[C@]5(C)[C@H]4CC[C@]3(C)[C@H]1[C@@H]2C |  |  | 6.38 µM | 15.2 µM | 9.44 µM | 19 µM | 9.67 µM
30 | C=C[N+](C)(C=C)[C@H]1CC[C@@]2(C)C(=CC[C@H]3[C@@H]4C[C@@H]5O[C@]6(CC[C@@H](C)CO6)[C@@H](C)[C@@H]5[C@@]4(C)CC[C@@H]32)C1 |  |  | 4.01 µM | 6.64 µM | 4.06 µM | 5.96 µM | 5 µM
